Results taken from patent US6552018B1, “Pyrazole derivatives” (Daiichi Pharmaceutical Co., Ltd., priority 1997, dated 2003).
≈ marks a conversion by molar mass, not a printed value. Where a name gives a salt, the structure may show the parent alone.

Columns and labels:
Tumor cells PC-12 = assay: Tumor cell growth inhibition (MTT), PC-12; assay type: cell-based; details: PC-12 cells, culturing for 3 days with compound, absorbance at 540 nm; for GI50: Rattus norvegicus, PC-12, 72 h, read-out: GI50, concentration of the compound which showed 50% inhibition on cell growth as compared with a control group, PC-12
Description: (§1) Tumor cells PC-12 and PC-6, which had been serially cultured in RPMI 1640 containing 10% fetal bovine serum, 2 mM L-glutamine, and 100 μg/ml of kanamycin sulfate, were inoculated to a 96-well microplate (1.0×10^3 cells-PC-12/150 μl/well; 5.0×10^3 cells-PC-6/150 μl/well). After 24-hour incuvation, 50 μl of a preparation containing each of the compounds of Examples 5 to 8 and Example 13 (hereinafter described) in a varied concentration was added to each well, followed by culturing for 3 days. A 5 mg/ml solution of 3-(4,5-dimethylthiazol-2-yl)-2,5-diphenyl-2H-tetrazolium bromide (MTT) was added in an amount of 20 μl per well. Four hours later, the culture broth was removed, 150 μl/well of dimethyl sulfoxide was added to the residue, and the absorbance was measured at 540 nm.

Tumor cells PC-6 = assay: Tumor cell growth inhibition (MTT), PC-6; assay type: cell-based; details: Homo sapiens, 72 h, PC-6 cells, culturing for 3 days with compound, absorbance at 540 nm, read-out: GI50, concentration of the compound which showed 50% inhibition on cell growth as compared with a control group, PC-6
Description: as §1

With `Cc1c(/C=C/CN2CCN(c3cc(F)cc(F)c3)CC2)cnn1-c1ncccc1I` (as salt: hydrochloride) the melting point was 212 to 216 °C (dec.).
Compound `Cc1c(/C=C/CN2CCN3c4cc(F)ccc4OCC3C2)cnn1-c1cc(N(C)C)nc(N)n1` (racemic) [Example 71, (+/−)-3-[3-[1-(2-Amino-6-dimethylamino-4-pyrimidinyl)-5-methyl-4-pyrazolyl]-2-trans-propen-1-yl]-9-fluoro-2,3,4,4a,5,6-hexahydro-1H-pyrazino[2,1-c]-1,4-benzoxazine Hydrochloride] has a GI50 (Tumor cells PC-12) of 0.00537 µg/mL.
In the case of `Cc1c(/C=C/CN2CCN3c4ccccc4CC3C2)cnn1-c1cc(N(C)C)nc(N)n1` (racemic) [Example 72, (+/−)-2-[3-[1-(2-Amino-6-dimethylamino-4-pyrimidinyl)-5-methyl-4-pyrazolyl]-2-trans-propen-1-yl]-1,2,3,4,10,10a-hexahydropyrazino[1,2-a]indole Hydrochloride], the GI50 (Tumor cells PC-12) is reported as 0.035 µg/mL.
In the case of `Cc1c(/C=C/CN2CCN3c4ccccc4CCC3C2)cnn1-c1cc(N(C)C)nc(N)n1` (single isomer, unassigned; isomer a) [Example 67, 3-[3-[1-(2-Amino-6-dimethylamino-4-pyrimidinyl)-5-methyl-4-pyrazolyl]-2-trans-propen-1-yl]-2,3,4,4a,5,6-hexahydro-1H-pyrazino[1,2-a]quinoline Hydrochloride (Isomer A)], the “GI50, concentration of the compound which showed 50% inhibition on cell growth as compared with a control group, PC-12” value (Tumor cells PC-12) is reported as 0.0662 µg/mL.
In the case of `Cc1c(/C=C/CN2CCN3c4cc(F)ccc4CCC3C2)cnn1-c1cc(N(C)C)nc(N)n1.Cl` (single isomer, unassigned; isomer a) [Example 69, 3-[3-[1-(2-Amino-6-dimethylamino-4-pyrimidinyl)-5-methyl-4-pyrazolyl]-2-trans-propen-1-yl]-9-fluoro-2,3,4,4a,5,6-hexahydro-1H-pyrazin[1,2-a]quinoline Hydrochloride (Isomer A)], the GI50 (Tumor cells PC-12) is reported as 0.0246 µg/mL.
In the case of `Cc1c(/C=C/CN2CCN3c4ccccc4CCC3C2)cnn1-c1cc(N(C)C)nc(N)n1` (single isomer, unassigned; isomer b) [Example 68, 3-[3-[1-(2-Amino-6-dimethylamino-4-pyrimidinyl)-5-methyl-4-pyrazolyl]-2-trans-propen-1-yl]-2,3,4,4a,5,6-hexahydro-1H-pyrazino[1,2-a]quinoline Hydrochloride (Isomer B)], the “GI50, concentration of the compound which showed 50% inhibition on cell growth as compared with a control group, PC-12” value (Tumor cells PC-12) is reported as 0.00916 µg/mL.
With `Cc1c(/C=C/CN2CCN3c4cc(F)ccc4CCC3C2)cnn1-c1cc(N(C)C)nc(N)n1` (single isomer, unassigned; isomer b) [Example 70, 3-[3-(1-(2-Amino-6-dimethylamino-4-pyrimidin-yl)-5-methyl-4-pyrazolyl)-2-trans-propen-1-yl]-9-fluoro-2,3,4,4a,5,6-hexahydro-1H-pyrazino[1,2-a]quinoline (Isomer B)] the GI50 (Tumor cells PC-12) was 0.0101 µg/mL (≈ 0.0218 µM).
`Cc1c(/C=C/CN2CCN(c3cc(F)cc(Cl)c3)CC2)cnn1-c1ncccc1Cl.Cl` [Example 5, 3-[4-(3-Chloro-5-fluorophenyl)-1-piperazinyl]-1-[1-(3-chloro-2-pyridyl)-5-methyl-4-pyrazolyl]-1-trans-propene Hydrochloride] showed a GI50 (Tumor cells PC-12) of 0.0913 µg/mL and a GI50 (Tumor cells PC-6) of 0.0106 µg/mL.
With `Cc1c(/C=C/CN2CCN(c3cc(F)cc(F)c3)CC2)cnn1-c1ncccc1Cl.Cl` [Example 6, 1-[1-(3-Chloro-2-pyridyl)-5-methyl-4-pyrazolyl]-3-[4-(3,5-difluorophenyl)-1-piperazinyl]-1-trans-propene Hydrochloride] the GI50 (Tumor cells PC-12) was 0.0347 µg/mL and the GI50 (Tumor cells PC-6) was 0.00879 µg/mL.
For `Cc1c(/C=C/CN2CCN(c3cc(Cl)cc(Cl)c3)CC2)cnn1-c1ncccc1Cl.Cl` [Example 7], the GI50 (Tumor cells PC-12) was 0.237 µg/mL and the GI50 (Tumor cells PC-6) was 0.0382 µg/mL.
With `Cc1c(/C=C/CN2CCN(c3cccc(Cl)c3)CC2)cnn1-c1ncccc1Cl.Cl` [Example 8, 3-[4-(3-Chlorophenyl)-1-piperazinyl]-1-[1-(3-chloro-2-pyridyl)-5-methyl-4-pyrazolyl]-1-propene Hydrochloride] the GI50 (Tumor cells PC-12) was 0.21 µg/mL and the GI50 (Tumor cells PC-6) was 0.0373 µg/mL.
In the case of `COc1cccnc1-n1ncc(/C=C/CN2CCN(c3cc(Cl)cc(Cl)c3)CC2)c1C.Cl` [Example 13, 3-[4-(3,5-Dichlorophenyl)-1-piperazinyl]-1-[1-(3-methoxy-2-pyridyl)-5-methyl-4-pyrazolyl]-1-trans-propene Hydrochloride], the GI50 (Tumor cells PC-12) is reported as 0.0383 µg/mL and the GI50 (Tumor cells PC-6) is reported as 0.00493 µg/mL.
`Cc1c(/C=C/CN2CCN(c3cc(F)cc(F)c3)CC2)cnn1-c1cc(N)nc(N)n1.Cl` [Example 58, 1-[1-(2,6-Diamino-4-pyrimidinyl)-5-methyl-4-pyrazolyl]-3-[4-(3,5-difluorophenyl)-1-piperazinyl]-1-trans-propene Hydrochloride] showed a GI50 (Tumor cells PC-12) of 0.0134 µg/mL.
Work on `CNc1cc(-n2ncc(/C=C/CN3CCN(c4cc(F)cc(F)c4)CC3)c2C)nc(N)n1.Cl` [Example 59, 1-[1-(2-Amino-6-methylamino-4-pyrimidinyl)-5-methyl-4-pyrazolyl]-3-[4-(3,5-difluorophenyl)-1-piperazinyl]-1-trans-propene Hydrochloride] yielded a GI50 (Tumor cells PC-12) of 0.011 µg/mL.
For `Cc1c(/C=C/CN2CCN(c3cc(F)cc(F)c3)CC2)cnn1-c1nc(N)nc(N(C)C)n1.Cl` [Example 60, 1-[1-(2-Amino-4-dimethylamino-1,3,5-triazin-6-yl)-5-methyl-4-pyrazolyl]-3-[4-(3,5-difluorophenyl)-1-piperazinyl]-1-trans-propene Hydrochloride], the GI50 (Tumor cells PC-12) was 0.0207 µg/mL.
